In the experiment the test system is B6C3F1 mice, B16 melanoma ip, median survival T/C. Briefly: NCI In Vivo Anticancer Drug Screen. Data for tumor model B16 Melanoma (intraperitoneal) in B6C3F1 mice. To be noted: endpoint: median survival time, higher = longer survival. The procedure, abridged: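 Tumor-bearing mice received test compound; a separate group got vehicle only. Survival was then compared, with results reported as treated over control.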

Setting [1] is: dose: 0.5 mg/kg/injection, schedule: Q01DX009 (ip), vehicle: saline.
Setting [2] is: dose: 6.25 mg/kg/injection, schedule: Q01DX009 (ip), vehicle: Klucel (hydroxypropylcellulose) (HPC).
Setting [3] is: dose: 25.0 mg/kg/injection, schedule: Q01DX009 (ip), vehicle: Klucel (hydroxypropylcellulose) (HPC).
The mark [4] stands for this setting: dose: 50.0 mg/kg/injection, schedule: Q01DX009 (ip), vehicle: Klucel (hydroxypropylcellulose) (HPC).
The mark [5] stands for this setting: dose: 100.0 mg/kg/injection, schedule: Q01DX009 (ip), vehicle: Klucel (hydroxypropylcellulose) (HPC).
Setting [6] is: dose: 200.0 mg/kg/injection, schedule: Q01DX009 (ip), vehicle: Klucel (hydroxypropylcellulose) (HPC).
The mark [7] stands for this setting: dose: 12.5 mg/kg/injection, schedule: Q01DX009 (ip), vehicle: saline.
[8] abbreviates: dose: 25.0 mg/kg/injection, schedule: Q01DX009 (ip), vehicle: saline.
Setting [9] is: dose: 50.0 mg/kg/injection, schedule: Q01DX009 (ip), vehicle: saline.
Where [10] appears, read: dose: 0.78 mg/kg/injection, schedule: Q01DX009 (ip), vehicle: saline with Tween-80.
Setting [11] is: dose: 1.56 mg/kg/injection, schedule: Q01DX009 (ip), vehicle: saline with Tween-80.
Setting [12] is: dose: 400.0 mg/kg/injection, schedule: Q01DX009 (ip), vehicle: Klucel (hydroxypropylcellulose) (HPC).

The source of these data is PubChem BioAssay AID200 (DTP/NCI, 2004).

“And” between values parts separate entries of the source, which are not always exact repeats. Equal entries are not always repeated. Toxic doses and inconclusive results are not listed.

With `Cc1c(N)nc(C(CC(N)=O)NCC(N)C(N)=O)nc1C(=O)NC(C(=O)NC(C)C(O)CC(=O)NC(C(=O)NC(OC1OC(C)C(N)C(O)C1O)C(O)c1nc(-c2nc(C(=O)NCCCC(N)CC(=O)NCCCNCCCCN)cs2)cs1)C(C)O)C(OC1OC(CO)C(O)C(O)C1OC1OC(CO)C(O)C(OC(N)=O)C1O)c1cnc[nH]1` (configuration not stated), the T/C under setting [1] is 120 % of control.
On to `COc1ccc(OC)c(/C=C/c2ccnc3ccccc23)c1`, for which the T/C reads like this: (dose: 50.0 mg/kg/injection, schedule: Q01DX009 (ip), vehicle: saline sonified) 95 % of control; (dose: 100.0 mg/kg/injection, schedule: Q01DX009 (ip), vehicle: saline sonified) 107 % of control; (dose: 200.0 mg/kg/injection, schedule: Q01DX009 (ip), vehicle: saline sonified) 117 % of control.
As for `C[C@H]1C[C@@H]2[C@H]([C@@H](O)C[C@@]3(C)[C@H]2CC[C@]3(O)C(=O)CO)[C@@]2(C)C=CC(=O)C=C12`, the T/C is 115 % of control and 101 % of control under setting [2]; 110 % of control and 101 % of control (dose: 12.5 mg/kg/injection, schedule: Q01DX009 (ip), vehicle: Klucel (hydroxypropylcellulose) (HPC)); 114 % of control and 107 % of control under setting [3]; 109 % of control and 111 % of control under setting [4]; 118 % of control and 119 % of control under setting [5]; 112 % of control and 121 % of control under setting [6].
As to `CC(=O)/C=C\c1ccc(Cl)cc1`, the T/C under setting [7] is 107 % of control, the T/C under setting [8] is 103 % of control and the T/C under setting [9] was 103 % of control.
As for `NC(CNC(=O)CBr)C(=O)O` (configuration not stated), the T/C is, setting by setting: (dose: 6.25 mg/kg/injection, schedule: Q01DX009 (ip), vehicle: water) 112 % of control and 117 % of control and 104 % of control; (dose: 12.5 mg/kg/injection, schedule: Q01DX009 (ip), vehicle: water) 116 % of control and 118 % of control; (dose: 50.0 mg/kg/injection, schedule: Q01DX009 (ip), vehicle: water) 153 % of control.
Take `CCC12C[N+]3([O-])CCc4c([nH]c5ccccc45)C(C(=O)OC)(c4cc5c(cc4OC)N(C)C4C(O)(C(=O)OC)C(OC(C)=O)C6(CC)C=CCN7CCC54C76)CC(C3)C1O2` (configuration not stated): the T/C was 112 % of control (dose: 0.62 mg/kg/injection, schedule: Q01DX009 (ip), vehicle: water); 104 % of control and 107 % of control (dose: 1.25 mg/kg/injection, schedule: Q01DX009 (ip), vehicle: water); 185 % of control (dose: 2.5 mg/kg/injection, schedule: Q01DX009 (ip), vehicle: saline); 246 % of control (dose: 5.0 mg/kg/injection, schedule: Q01DX009 (ip), vehicle: saline); 108 % of control and 261 % of control (dose: 5.0 mg/kg/injection, schedule: Q01DX009 (ip), vehicle: water); 373 % of control (dose: 10.0 mg/kg/injection, schedule: Q01DX009 (ip), vehicle: saline). Besides, under “dose: 10.0 mg/kg/injection, schedule: Q01DX009 (ip), vehicle: water”, the T/C was 121 % of control and 309 % of control.
As for `COC(=Nc1ccccc1)SSC(C)C`, the T/C under setting [10] is 112 % of control; the T/C under setting [11] is 116 % of control; the T/C (dose: 3.12 mg/kg/injection, schedule: Q01DX009 (ip), vehicle: saline with Tween-80) was 87 % of control; the T/C (dose: 12.5 mg/kg/injection, schedule: Q01DX009 (ip), vehicle: saline with Tween-80) is 86 % of control and 104 % of control; the T/C (dose: 25.0 mg/kg/injection, schedule: Q01DX009 (ip), vehicle: saline with Tween-80) was 87 % of control and 97 % of control; the T/C (dose: 50.0 mg/kg/injection, schedule: Q01DX009 (ip), vehicle: saline with Tween-80) is 88 % of control. Also, the T/C (dose: 100.0 mg/kg/injection, schedule: Q01DX009 (ip), vehicle: saline with Tween-80) is 102 % of control.
For `NC(=O)Oc1cc(OC(N)=O)cc(N(CCCl)CCCl)c1`, the T/C (dose: 3.12 mg/kg/injection, schedule: Q01DX009 (ip), vehicle: Klucel (hydroxypropylcellulose) (HPC)) was 115 % of control; the T/C under setting [2] was 107 % of control; the T/C (dose: 6.25 mg/kg/injection, schedule: Q01DX009 (ip), vehicle: saline) is 91 % of control; the T/C under setting [7] is 96 % of control; the T/C under setting [3] was 170 % of control; the T/C under setting [8] was 104 % of control. The T/C runs as follows: under setting [9], 104 % of control; (dose: 100.0 mg/kg/injection, schedule: Q01DX009 (ip), vehicle: saline) 102 % of control.
Regarding `COC1=CC(=O)c2c(O)cc(OC)cc2C1=O`, the T/C is 105 % of control (dose: 1.25 mg/kg/injection, schedule: Q01DX009 (ip), vehicle: saline with Tween-80); 105 % of control (dose: 2.5 mg/kg/injection, schedule: Q01DX009 (ip), vehicle: saline with Tween-80); 121 % of control (dose: 5.0 mg/kg/injection, schedule: Q01DX009 (ip), vehicle: saline with Tween-80); 109 % of control (dose: 10.0 mg/kg/injection, schedule: Q01DX009 (ip), vehicle: saline with Tween-80).
For `Cc1cc(Cc2cc(C)c(C)c(C)c2C)c(C)c(C)c1C`, the T/C is 89 % of control under setting [10]; 91 % of control under setting [11]; 100 % of control (dose: 3.13 mg/kg/injection, schedule: Q01DX009 (ip), vehicle: saline with Tween-80); 106 % of control (dose: 6.25 mg/kg/injection, schedule: Q01DX009 (ip), vehicle: saline with Tween-80).
As for `CC1=C(C)C(=O)O[C@@H]([C@](C)(O)[C@]2(O)CC[C@@]3(O)[C@@H]4C[C@H]5O[C@]56[C@@H](O)C=CC(=O)[C@]6(C)[C@H]4CC[C@]23C)C1`, the T/C reads like this: (dose: 0.25 mg/kg/injection, schedule: Q01DX009 (ip), vehicle: saline + alcohol) 122 % of control; (dose: 0.25 mg/kg/injection, schedule: Q01DX009 (ip), vehicle: saline) 107 % of control; (dose: 0.5 mg/kg/injection, schedule: Q01DX009 (ip), vehicle: saline + alcohol) 117 % of control; under setting [1], 116 % of control; (dose: 1.0 mg/kg/injection, schedule: Q01DX009 (ip), vehicle: saline + alcohol) 122 % of control; (dose: 1.0 mg/kg/injection, schedule: Q01DX009 (ip), vehicle: saline) 115 % of control and 124 % of control. The T/C is, setting by setting: (dose: 2.0 mg/kg/injection, schedule: Q01DX009 (ip), vehicle: saline) 115 % of control; (dose: 4.0 mg/kg/injection, schedule: Q01DX009 (ip), vehicle: saline + alcohol) 150 % of control; (dose: 16.0 mg/kg/injection, schedule: Q01DX009 (ip), vehicle: saline) 152 % of control and 171 % of control; (dose: 16.0 mg/kg/injection, schedule: Q01DX009 (ip), vehicle: suspension in saline) 170 % of control.
Regarding `C=C(c1ccc(OC)c(OC)c1)c1nccc2cc(OC)c(OC)cc12`, the T/C by setting is: under setting [4], 103 % of control; under setting [5], 98 % of control; under setting [6], 87 % of control; under setting [12], 97 % of control; (dose: 800.0 mg/kg/injection, schedule: Q01DX009 (ip), vehicle: Klucel (hydroxypropylcellulose) (HPC)) 90 % of control.
Take `CN(C)N=Nc1ccnc2ccc(Br)cc12`: the T/C (dose: 3.13 mg/kg/injection, schedule: Q01DX009 (ip), vehicle: other) is 109 % of control; the T/C (dose: 6.25 mg/kg/injection, schedule: Q01DX009 (ip), vehicle: other) is 114 % of control; the T/C (dose: 12.5 mg/kg/injection, schedule: Q01DX009 (ip), vehicle: other) was 110 % of control; the T/C (dose: 25.0 mg/kg/injection, schedule: Q01DX009 (ip), vehicle: other) was 114 % of control; the T/C (dose: 50.0 mg/kg/injection, schedule: Q01DX009 (ip), vehicle: other) is 115 % of control.
Take `O=NN(CCF)C(=O)N[C@H]1CCCC[C@H]1O`: the T/C (dose: 7.5 mg/kg/injection, schedule: Q01DX001 (ip), vehicle: saline) was 109 % of control; the T/C (dose: 30.0 mg/kg/injection, schedule: Q01DX001 (ip), vehicle: saline) is 177 % of control; the T/C (dose: 60.0 mg/kg/injection, schedule: Q01DX001 (ip), vehicle: saline) is 209 % of control.
Regarding `CCC(C)C(NC(=O)OC(C)(C)C)C(=O)O` (configuration not stated), the T/C under setting [5] was 99 % of control, the T/C under setting [6] is 92 % of control and the T/C under setting [12] was 87 % of control.
